Results from patent US12391666B2, “Indoline-1-formamide compound, preparation method therefor, and medical use thereof” (Beijing Innocare Pharma Tech Co., Ltd., priority 2018, dated 2025).
pIC50: −log10 of the molar value.

What was measured:
Type in all cases: biochemical
[1] = target: VEGFR2 (Homo sapiens (Human), UniProt P35968); test: VEGFR2 activity inhibition testing (HTRF in vitro kinase assay); settings: humanized recombinant VEGFR2 protein, 3.5 μM ATP
Method: (§1) The IC50 value of the compound is calculated from 8 concentration points with the XLfit (ID Business Solutions Ltd., UK) software through the following equation: Y=Bottom+(Top−Bottom)/(1+10^((log IC50−X)*slope factor)) • where Y is the inhibition percentage, X is the logarithm of the concentration of the test compound, Bottom is the maximum inhibition percentage, Top is the minimum inhibition percentage, and slope factor is the slope coefficient of the curve. VEGFR2 Activity Inhibition Testing
An in vitro kinase assay was used to evaluate the effect of the compounds of the present invention on VEGFR2 activity.
(§2) The experimental method is summarized as follows:
The in vitro activity of VEGFR2 was determined by detecting the phosphorylation level of the substrate in the kinase reaction using a homogeneous time-resolved fluorescence (HTRF) kinase detection kit (Cisbio, catalog number 62TKOPEC). The reaction buffer contains an enzyme reaction buffer (1×) provided in the kit, 5 mM MgCl2, 1 mM MnCl2, 1 mM DTT, 0.01% BSA and 0.005% Tween 20. The humanized recombinant VEGFR2 protein (Cat. No. 10012-H20B1) was purchased from Sino Biological Inc., and diluted to a 0.3 ng/μL kinase solution with the reaction buffer. The substrate reaction solution includes 0.3 μM biotin-labeled tyrosine kinase substrate and 3.5 μM ATP which were diluted with the reaction buffer. The assay buffer includes 0.1 ng/μL Eu^3+ labeled cage antibody and 18.75 nM streptavidin labeled XL665 (Cisbio, catalog number 610SAXLB) which were diluted with the reaction buffer.
The compound was dissolved and diluted to 10 μM in 100% DMSO, then a 4-fold serial dilution was performed with DMSO to the lowest concentration of 0.61 nM, and each concentration point was diluted 40-fold with the reaction buffer.
4 μL of Compound solution and 2 μL of VEGFR2 kinase solution were added to a 384-well detection plate (Corning, catalog number 4512), mixed uniformly and incubated at room temperature for 15 minutes. Then 4 μL of the substrate reaction solution was added, and the reaction mixture was incubated at room temperature for 30 minutes. Then 10 μL of the assay buffer equal to the volume of the reaction was added, mixed uniformly and allowed to stand at room temperature for 30 minutes, and then the reaction progress was detected with an Envision plate reader (Perkin Elmer) at wavelengths of 620 nm and 665 nm. The ratio of 665/620 is positively correlated with the phosphorylation degree of the substrate, thereby detecting the activity of VEGFR2 kinase. In this experiment, the group without VEGFR2 kinase protein was used as a negative control (100% inhibition), and the group with VEGFR2 kinase protein but no compound was used as a positive control (0% inhibition). The inhibition percentage of the compound on VEGFR2 activity can be calculated using the following equation: Percentage of inhibition=100−100*(signal value of test compound at a specific concentration−signal value of negative control)/(signal value of positive control—signal value of negative control)
as §1, with “VEGFR3” for “VEGFR2”

[2] = target: VEGFR1 (Homo sapiens (Human), UniProt P17948); test: VEGFR1 activity inhibition testing (HTRF in vitro kinase assay); settings: humanized recombinant VEGFR1 protein, 0.8 μM ATP
Method: VEGFR1 Activity Inhibition Testing
An in vitro kinase assay was used to evaluate the effect of the compounds of the present invention on VEGFR1 activity.
as §2
The in vitro activity of VEGFR1 was determined by detecting the phosphorylation level of the substrate in the kinase reaction using a homogeneous time-resolved fluorescence (HTRF) kinase detection kit (Cisbio, catalog number 62TKOPEC). The reaction buffer contains an enzyme reaction buffer (1×) provided in the kit, 5 mM MgCl2, 1 mM MnCl2, 1 mM DTT. […]
4 μL of Compound solution and 2 μL of VEGFR1 kinase solution were added to a 384-well detection plate (Corning, catalog number 4512), mixed uniformly and incubated at room temperature for 15 minutes. […] Then 10 μL of the assay buffer equal to the volume of the reaction was added, mixed uniformly and allowed to stand at room temperature for 30 minutes, and then the reaction progress was detected with an Envision plate reader (Perkin Elmer) at wavelengths of 620 nm and 665 nm. […] The inhibition percentage of the compound on VEGFR1 activity can be calculated using the following equation: Percentage of inhibition=100−100*(signal value of test compound at a specific concentration−signal value of negative control)/(signal value of positive control−signal value of negative control) […]

[3] = target: VEGFR3 (Homo sapiens (Human), UniProt P35916); test: VEGFR3 activity inhibition testing (HTRF in vitro kinase assay); settings: humanized recombinant VEGFR3 protein, 0.4 μM ATP
Method: as §1, with “VEGFR3” for “VEGFR2”
An in vitro kinase assay was used to evaluate the effect of the compounds of the present invention on VEGFR3 activity.
as §2
The in vitro activity of VEGFR3 was determined by detecting the phosphorylation level of the substrate in the kinase reaction using a HTRF kinase detection kit (Cisbio, catalog number 62TK0PEC). […]
4 μL of Compound solution and 2 μL of VEGFR3 kinase solution were added to a 384-well detection plate (Corning, catalog number 4512), mixed uniformly and incubated at room temperature for 15 minutes. […] Then 10 μL of the assay buffer equal to the volume of the reaction was added, mixed uniformly and allowed to stand at room temperature for 30 minutes, and then the reaction progress was detected with an Envision plate reader (Perkin Elmer) at wavelengths of 620 nm and 665 nm. […]

Chain of VEGFR2 (P35968 20-1356): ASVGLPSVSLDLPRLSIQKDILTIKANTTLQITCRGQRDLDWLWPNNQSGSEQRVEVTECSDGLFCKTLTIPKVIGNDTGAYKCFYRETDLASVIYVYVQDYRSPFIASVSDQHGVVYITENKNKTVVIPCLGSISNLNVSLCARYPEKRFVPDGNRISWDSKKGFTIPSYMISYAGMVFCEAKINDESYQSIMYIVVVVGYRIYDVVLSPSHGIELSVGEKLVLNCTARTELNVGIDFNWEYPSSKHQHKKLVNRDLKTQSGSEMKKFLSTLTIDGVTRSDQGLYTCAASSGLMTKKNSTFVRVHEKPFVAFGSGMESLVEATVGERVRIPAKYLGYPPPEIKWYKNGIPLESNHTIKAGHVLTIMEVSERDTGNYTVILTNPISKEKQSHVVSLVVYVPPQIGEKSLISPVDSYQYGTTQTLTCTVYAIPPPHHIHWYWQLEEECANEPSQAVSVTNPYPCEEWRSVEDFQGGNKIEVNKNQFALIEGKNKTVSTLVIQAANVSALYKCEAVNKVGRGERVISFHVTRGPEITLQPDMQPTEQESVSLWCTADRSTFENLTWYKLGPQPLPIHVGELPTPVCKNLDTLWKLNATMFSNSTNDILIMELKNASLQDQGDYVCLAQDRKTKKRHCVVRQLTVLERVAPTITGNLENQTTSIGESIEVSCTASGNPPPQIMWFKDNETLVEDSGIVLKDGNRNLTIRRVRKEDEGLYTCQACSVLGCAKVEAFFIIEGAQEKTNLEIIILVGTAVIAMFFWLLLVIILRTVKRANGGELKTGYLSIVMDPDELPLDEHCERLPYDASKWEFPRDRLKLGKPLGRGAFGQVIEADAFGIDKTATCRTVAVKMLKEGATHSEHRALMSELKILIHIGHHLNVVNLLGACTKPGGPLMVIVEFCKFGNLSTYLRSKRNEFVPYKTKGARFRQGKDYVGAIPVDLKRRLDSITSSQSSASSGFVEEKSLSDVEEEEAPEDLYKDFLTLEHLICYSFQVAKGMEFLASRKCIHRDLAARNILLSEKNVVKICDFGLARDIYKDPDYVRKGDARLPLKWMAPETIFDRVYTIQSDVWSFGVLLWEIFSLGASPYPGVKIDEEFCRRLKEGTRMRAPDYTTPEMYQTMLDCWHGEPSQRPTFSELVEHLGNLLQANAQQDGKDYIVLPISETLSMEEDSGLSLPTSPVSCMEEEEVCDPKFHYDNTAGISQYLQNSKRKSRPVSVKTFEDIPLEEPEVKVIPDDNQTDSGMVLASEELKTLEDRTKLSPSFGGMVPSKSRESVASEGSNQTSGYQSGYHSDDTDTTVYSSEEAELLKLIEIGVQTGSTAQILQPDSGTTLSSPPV
Chain of VEGFR3 (P35916 25-1363): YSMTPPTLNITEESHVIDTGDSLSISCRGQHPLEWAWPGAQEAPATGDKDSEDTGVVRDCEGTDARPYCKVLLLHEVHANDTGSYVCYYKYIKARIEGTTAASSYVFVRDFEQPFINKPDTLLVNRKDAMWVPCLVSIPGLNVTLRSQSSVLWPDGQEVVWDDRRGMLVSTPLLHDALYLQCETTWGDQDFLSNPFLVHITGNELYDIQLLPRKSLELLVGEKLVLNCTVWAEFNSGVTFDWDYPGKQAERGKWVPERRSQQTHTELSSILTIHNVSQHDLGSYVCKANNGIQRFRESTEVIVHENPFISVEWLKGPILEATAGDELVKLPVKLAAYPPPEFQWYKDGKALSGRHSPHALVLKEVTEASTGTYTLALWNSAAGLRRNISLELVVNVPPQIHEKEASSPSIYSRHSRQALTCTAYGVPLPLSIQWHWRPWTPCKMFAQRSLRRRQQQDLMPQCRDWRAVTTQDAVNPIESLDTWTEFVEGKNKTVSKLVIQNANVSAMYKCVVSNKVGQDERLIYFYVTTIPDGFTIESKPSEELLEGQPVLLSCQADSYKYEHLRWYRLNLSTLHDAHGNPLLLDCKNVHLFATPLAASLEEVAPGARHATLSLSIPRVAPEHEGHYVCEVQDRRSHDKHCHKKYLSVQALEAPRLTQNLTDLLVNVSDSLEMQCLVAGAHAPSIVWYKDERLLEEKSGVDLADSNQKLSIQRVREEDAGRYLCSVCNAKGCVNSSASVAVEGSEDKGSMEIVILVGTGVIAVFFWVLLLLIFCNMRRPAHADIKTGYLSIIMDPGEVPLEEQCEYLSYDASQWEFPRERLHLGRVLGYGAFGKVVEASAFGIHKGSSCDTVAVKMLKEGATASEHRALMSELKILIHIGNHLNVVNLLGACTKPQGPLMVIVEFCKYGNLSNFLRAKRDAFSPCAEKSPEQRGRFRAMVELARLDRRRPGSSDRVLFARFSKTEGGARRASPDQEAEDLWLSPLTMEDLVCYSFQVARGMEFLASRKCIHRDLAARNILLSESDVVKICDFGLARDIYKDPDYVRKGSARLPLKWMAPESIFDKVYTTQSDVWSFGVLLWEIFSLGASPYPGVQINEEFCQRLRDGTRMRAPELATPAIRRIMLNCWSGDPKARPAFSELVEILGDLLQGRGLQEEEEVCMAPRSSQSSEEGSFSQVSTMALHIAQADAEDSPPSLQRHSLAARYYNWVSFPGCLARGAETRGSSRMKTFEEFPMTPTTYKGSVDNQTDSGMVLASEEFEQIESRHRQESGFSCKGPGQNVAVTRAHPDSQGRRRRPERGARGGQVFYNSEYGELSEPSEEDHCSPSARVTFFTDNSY
Chain of VEGFR1 (P17948 27-1338): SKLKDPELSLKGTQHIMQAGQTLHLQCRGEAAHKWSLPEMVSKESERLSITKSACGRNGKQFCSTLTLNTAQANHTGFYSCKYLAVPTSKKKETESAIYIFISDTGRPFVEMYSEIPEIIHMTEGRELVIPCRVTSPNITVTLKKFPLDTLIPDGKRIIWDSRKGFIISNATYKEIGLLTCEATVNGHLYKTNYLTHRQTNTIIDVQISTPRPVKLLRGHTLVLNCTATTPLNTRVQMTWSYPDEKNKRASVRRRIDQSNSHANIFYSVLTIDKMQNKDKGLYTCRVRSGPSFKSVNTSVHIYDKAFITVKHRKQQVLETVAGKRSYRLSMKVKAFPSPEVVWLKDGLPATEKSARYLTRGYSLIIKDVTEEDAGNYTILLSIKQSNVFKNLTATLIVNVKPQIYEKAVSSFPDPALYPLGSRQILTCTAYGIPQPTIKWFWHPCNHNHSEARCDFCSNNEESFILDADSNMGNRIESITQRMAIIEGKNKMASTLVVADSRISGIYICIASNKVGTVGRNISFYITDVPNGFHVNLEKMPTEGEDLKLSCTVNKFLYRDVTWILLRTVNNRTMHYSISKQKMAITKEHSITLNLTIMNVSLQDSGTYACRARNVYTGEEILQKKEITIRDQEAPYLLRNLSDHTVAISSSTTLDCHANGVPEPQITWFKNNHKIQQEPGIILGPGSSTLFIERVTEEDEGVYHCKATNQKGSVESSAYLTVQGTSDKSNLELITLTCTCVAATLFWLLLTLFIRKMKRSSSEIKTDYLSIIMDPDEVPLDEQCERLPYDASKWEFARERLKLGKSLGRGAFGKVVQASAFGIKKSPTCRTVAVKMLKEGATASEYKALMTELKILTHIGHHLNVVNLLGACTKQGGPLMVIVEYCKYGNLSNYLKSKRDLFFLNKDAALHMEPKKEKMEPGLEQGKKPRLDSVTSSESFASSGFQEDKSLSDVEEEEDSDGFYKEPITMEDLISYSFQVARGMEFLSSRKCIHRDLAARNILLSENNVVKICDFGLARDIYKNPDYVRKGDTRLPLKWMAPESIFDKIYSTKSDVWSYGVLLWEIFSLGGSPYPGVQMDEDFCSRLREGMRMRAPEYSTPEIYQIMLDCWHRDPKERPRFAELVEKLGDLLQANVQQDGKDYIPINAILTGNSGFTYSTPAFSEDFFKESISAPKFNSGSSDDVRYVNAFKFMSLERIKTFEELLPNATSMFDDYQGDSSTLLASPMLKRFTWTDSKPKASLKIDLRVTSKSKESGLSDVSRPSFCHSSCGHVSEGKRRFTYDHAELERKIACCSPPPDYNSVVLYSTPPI

| SMILES | pIC50 [1] | pIC50 [2] | pIC50 [3] |
| --- | --- | --- | --- |
| COc1cc2nccc(Oc3ccc4c(c3)CCN4C(=O)Nc3cc(C)on3)c2cc1C(N)=O [Compound 6, 7-methoxy-4-((1-((5-methylisoxazol-3-yl)carbamoyl)indolin-5-yl)oxy)quinoline-6-carboxamide] | > 8.00 | – | – |
| COc1cc2nccc(Oc3ccc4c(c3)CCN4C(=O)Nc3ccc(F)cc3)c2cc1C(N)=O [Compound 4, 4-((1-((4-fluorophenyl)carbamoyl)indolin-5-yl)oxy)-7-methoxyquinoline-6-carboxamide] | > 8.00 | – | – |
| COc1cc2nccc(Oc3ccc4c(c3)CCN4C(=O)NC3CC3)c2cc1OC [Compound 5, N-cyclopropyl-5-((6,7-dimethoxyquinolin-4-yl)oxy)indoline-1-carboxamide] | 7.00 to 8.00 | – | – |
| NC(=O)c1cc2c(Oc3ccc4c(c3)CCN4C(=O)NC3CC3)ccnc2cc1O [Compound 2, 4-((1-(cyclopropylcarbamoyl)indolin-5-yl)oxy)-7-hydroxyquinoline-6-carboxamide] | 7.00 to 8.00 | – | – |
| COc1cc2nccc(Oc3ccc4c(c3)CCN4C(=O)NC3CC3)c2cc1C(N)=O [Compound 1, 4-((1-(cyclopropylcarbamoyl)indolin-5-yl)oxy)-7-methoxyquinoline-6-carboxamide] | > 8.00 | 7.00 to 8.00 | > 8.00 |
| CNC(=O)N1CCc2cc(Oc3ccnc4cc(OC)c(C(N)=O)cc34)ccc21 [Compound 3, 7-methoxy-4-((1-(methylcarbamoyl)indolin-5-yl)oxy)quinoline-6-carboxamide] | 7.00 to 8.00 | – | – |
